# Data taken from ChEMBL document CHEMBL4602730, “In Vitro and in Vivo Evaluation of Membrane-Active Flavone Amphiphiles: Semisynthetic Kaempferol-Derived Antimicrobials against Drug-Resistant Gram-Positive Bacteria” (J Med Chem, 2020).
# Activity calls are given as the source filed them. No cut-off for these calls is given here.
# Key:
# Staphylococcus aureus [1] = test: Antibacterial activity against Staphylococcus aureus ATCC 29213 assessed as inhibition of bacterial growth incubated for 24 hrs by broth microdilution method; format: functional; conditions: ATCC 29213, 24 h
# Staphylococcus aureus [2] = test: Antibacterial activity against methicillin-resistant Staphylococcus aureus N315 assessed as inhibition of bacterial growth incubated for 24 hrs by broth microdilution method; format: functional; conditions: N315, 24 h
# Staphylococcus aureus [3] = test: Antibacterial activity against methicillin-resistant Staphylococcus aureus NCTC 10442 assessed as inhibition of bacterial growth incubated for 24 hrs by broth microdilution method; format: functional; conditions: NCTC 10442, 24 h
# Staphylococcus aureus [4] = test: Antibacterial activity against Staphylococcus aureus ATCC 29213 assessed as induction of bacterial killing at 4 times MIC incubated for 8 hrs followed by re-plating of cultures and measured after 24 hrs by time kill study relative to control; format: functional
# [5] = Induction of hemolysis in rabbit RBC incubated for 1 hr; format: cell-based, Oryctolagus cuniculus, Erythrocyte; conditions: rabbit red blood cells (erythrocytes)
# Escherichia coli = test: Antibacterial activity against Escherichia coli assessed as inhibition of bacterial growth incubated for 24 hrs by broth microdilution method; format: functional
# Pseudomonas aeruginosa = test: Antibacterial activity against Pseudomonas aeruginosa assessed as inhibition of bacterial growth incubated for 24 hrs by broth microdilution method; format: functional
# Staphylococcus aureus [6] = test: Antibacterial activity against Staphylococcus aureus ATCC 29213 assessed as induction of bacterial killing at 4 times MIC incubated for 1 hrs followed by re-plating of cultures and measured after 24 hrs by time kill study relative to control; format: functional
# Staphylococcus aureus [7] = test: Antibacterial activity against Staphylococcus aureus ATCC 29213 assessed as induction of bacterial killing at 8 times MIC incubated for 0.5 hrs followed by re-plating of cultures and measured after 24 hrs by time kill study relative to control; format: functional
# Staphylococcus aureus [8] = test: Antibacterial activity against Staphylococcus aureus ATCC 29213 assessed as bacterial cell killing at 4 times MIC incubated for 1 hrs followed by re-plating of cultures and measured after 24 hrs by time kill study relative to control; format: functional
# Staphylococcus aureus [9] = test: Antibacterial activity against Staphylococcus aureus ATCC 29213 assessed as suppression of bacterial re-growth at 4 to 8 times MIC incubated for 0.5 to 24 hrs followed by re-plating of cultures and measured after 24 hrs by time kill study relative to control; format: functional, organism-based
# Staphylococcus aureus [10] = test: Induction of cytoplasmic membrane permeabilization in Staphylococcus aureus ATCC 29213 at 1 to 8 times MIC by SYTOX green dye based fluorescence assay; format: functional, organism-based
# Staphylococcus aureus [11] = test: Induction of cytoplasmic membrane permeabilization in methicillin-resistant Staphylococcus aureus NCTC 10442 at 1 to 8 times MIC by SYTOX green dye based fluorescence assay; format: functional, organism-based
# Staphylococcus aureus [12] = test: Induction of cell surface disruption in Staphylococcus aureus ATCC 29213 at 8 times MIC incubated for 2 hrs by scanning electron microscopy; format: functional, organism-based
# Staphylococcus aureus [13] = test: Induction of bacterial cell membrane integrity loss in Staphylococcus aureus ATCC 29213 incubated for 2 hrs propidium iodide and SYTO9 dye based LIVE/DEAD bacterial viability assay; format: functional, organism-based
# Staphylococcus aureus [14] = test: Resistance index, ratio of MIC for antibacterial activity against Staphylococcus aureus ATCC 29213 passed over 19 cycles in presence of compound for period of 19 consecutive days by broth microdilution method to MIC for antibacterial activity against Staphylococcus aureus ATCC 29213; format: functional
# [15] = Cytotoxicity in human MDA-MB-231 cells assessed as reduction in cell viability incubated for 24 hrs by CCK8 assay; format: cell-based
# [16] = Cytotoxicity in human MDA-MB-231 cells assessed as cell viability at 16 times MIC incubated for 24 hrs by CCK8 assay relative to control; format: cell-based; conditions: read-out: Activity
# [17] = Cytotoxicity in mouse corneal epithelial cells assessed as cell viability at 16 times MIC incubated for 24 hrs by CCK8 assay relative to control; format: cell-based; conditions: read-out: Activity
SMILES,MIC (Staphylococcus aureus [1]),MIC (Staphylococcus aureus [2]),MIC (Staphylococcus aureus [3]),LCK (Staphylococcus aureus [4]),HC50 at 1 h [5],MIC (Escherichia coli),MIC (Pseudomonas aeruginosa),LCK (Staphylococcus aureus [6]),LCK (Staphylococcus aureus [7]),Activity (Staphylococcus aureus [8]),Activity (Staphylococcus aureus [9]),Activity (Staphylococcus aureus [10]),Activity (Staphylococcus aureus [11]),Activity (Staphylococcus aureus [12]),Activity (Staphylococcus aureus [13]),Ratio (Staphylococcus aureus [14]),CC50 at 24 h [15],"viability at 24 h, 16 times MIC [16]","viability at 24 h, 16 times MIC [17]"
CN[C@H](CC(C)C)C(=O)N[C@H]1C(=O)N[C@@H](CC(N)=O)C(=O)N[C@H]2C(=O)N[C@H]3C(=O)N[C@H](C(=O)N[C@H](C(=O)O)c4cc(O)cc(O)c4-c4cc3ccc4O)[C@H](O)c3ccc(c(Cl)c3)Oc3cc2cc(c3O[C@@H]2O[C@H](CO)[C@@H](O)[C@H](O)[C@H]2O[C@H]2C[C@](C)(N)[C@H](O)[C@H](C)O2)Oc2ccc(cc2Cl)[C@H]1O [VANCOMYCIN],0.54 µM,1.08 µM,1.08 µM,1.18,,,,,,,,,,,,,,,
COC(=O)[C@H](CCCNC(=N)N)NC(=O)COc1c(-c2ccc(OCC=C(C)C)cc2)oc2cc(OCC=C(C)C)cc(O)c2c1=O,4.8 µM,2.4 µM,4.8 µM,,107 µM,inactive,inactive,3.19,3.78,>=99.9%,Active,Active,Active,Active,Active,<=4,> 50 µg/mL,67.3%,62.1%
